Experimental data from US4551460A, “Pyrido[2,1-b]quinazoline derivatives useful as agents for treatment of allergic conditions and vascular disorders involving thrombosis” (priority 1983, dated 1985).
Structures can show the parent of a compound that is named as a salt. Where two headings read alike, the source gives them in different places.

Experiments:
[1] = tested on: platelet activating factor induced platelet aggregation; experiment: Platelet activating factor induced platelet aggregation in vitro; format: cell-based; conditions: racemic platelet activating factor; read-out: PAF (IC50, platelet activating factor induced platelet aggregation)
Procedure: (§1) (1) Assay for Platelet Aggregation In Vitro
(§2) The turbidometric method of G. V. R. Born, Nature 194, 927 (1962) is used. Platelet rich plasma (PRP) and platelet poor plasma (PPP) are prepared with 0.38% sodium citrate-treated blood. Speed and time of centrifugation varied with different species; human:160 g for 20 minutes, dog:160 g for 15 minutes, guinea pig and rabbit:160 g for 15 minutes, and rat:230 g for 10 minutes. Aggregation is monitored with a Payton dual channel module or Chronolog lumiaggregometer when the release of ATP is simultaneously measured. 0.45 ml of PRP is added to a cuvette and prewarmed to 37° C. The stimulant (arachidonic acid or synthetic platelet activating factor) is added in volumes of 50 μl; all other agents in 5 μl. Vehicles are added to samples not containing agents. 0 to 100% light transmission is set with PRP and PPP. % aggregation is calculated from the % increase in light transmission at 5 minutes after the addition of the aggregating agent. For inhibition of aggregation studies the inhibitor is added first and preincubated with the platelets for 1 minute with stirring, followed by the stimulant. % inhibition is calculated from the % aggregation with and without the test compound. [formula]

[2] = tested on: arachidonic acid induced platelet aggregation; experiment: Arachidonic acid induced platelet aggregation in vitro; format: cell-based; conditions: read-out: AA (IC50, arachidonic acid induced platelet aggregation)
Procedure: as §1, §2

[3] = tested on: leukotriene E induced bronchoconstriction; experiment: Guinea pig bronchoconstriction, in vivo (aerosol); set-up: species or system guinea pig (Hartly strain); conditions: aerosol at concentration inhibiting bronchoconstriction by 80%
Procedure: (c) Guinea Pig Bronchoconstriction, In Vivo (Aerosol):
Male guinea pigs (Hartly strain) weighing 300 to 500 g are anesthetized with urethane (2 g/kg) intraperitoneally and a polyethylene cannula is inserted into the jugular vein for drug administration. Tracheal pressure is recorded from a cannula inserted in the trachea and connected to a Statham pressure transducer. After surgical preparation of the animals, a period of time is allowed for pulmonary functions to stabilize. The test compound is administered according to the following protocol. Propranolol (0.1 mg/kg) is administered intravenously while the animals breathed spontaneously. Five minutes thereafter, the animals are exposed for a five minute period to a 1% (w/v) aerosol solution of test compound (adjusted to an alkaline pH where necessary for drug solubilization) or to distilled water of the appropriate pH (for control purposes). A Monaghan (Model 750) ultrasonic nebulizer is used to administer all test compounds by inhalation. The nebulizer ultrasonic frequency is adjusted to produce particles in the 1-8μ diameter range (average 3μ). Aqueous solutions are prepared fresh and introduced into the chamber of the nebulizer. The output of the nebulizer is made available to the animal by directing a bias flow of aerosol through a y tube connected to the tracheal cannula. At the end of the exposure period, the animals are paralyzed with succinylcholine (1.2 mg/kg, i.v.) and mechanically respirated (Harvard rodent respirator) at 40 breaths/minute and 2.5 cc tidal volume. Animals are then challenged with a maximum constrictory dose of leukotriene E delivered intravenously 30 seconds after administration of the succinylcholine.
The change (cm H2 O) between pre and peak ventilatory pressure readings is averaged for three control animals and five drug treated animals. The percent inhibition is calculated from the following formula:
(Control-Drug Tested/Control)×100
When various drug concentrations are tested, the percent inhibition at each concentration is plotted as log concentration (abscissa) versus percent inhibition (ordinate) and the IC50 is determined from linear regression analysis.
In order to determine the aerosol half-life (t 1/2), the animals are prepared as described above, except that the time between aerosol exposure and challenge with leukotriene E is varied. All compounds are administered at the concentration necessary to inhibit leukotriene-induced bronchoconstriction by 80%. Biological half-life is calculated from plots of time (abscissa) versus log percent inhibition (ordinate).

[4] = tested on: SRS-A induced contraction of guinea pig ileum; experiment: In vitro SRS-A antagonism; conditions: 30 seconds pretreatment
Procedure: (j) In vitro SRS-A Antagonism
SRS-A was determined by bioassay on the guinea pig ileum using a modification of the method described by Orange et al., Adv. Immunol., 1969, 10, 105. A 1.5 cm segment of the ileum, obtained from male guinea pigs (175-200 g), was suspended in an organ bath containing Tyrodes solution with 10^-6 M atropine sulfate and 10^-6 M pyrilamine maleate. The bath was maintained at 37° C. and gassed with a mixture of 95 percent oxygen and 5 percent carbon dioxide. The ileum was attached to a strain gauge transducer and isotonic contractions recorded by a strip chart recorder. A resting tension of 0.5 g was applied and the tissue allowed to equilibrate for 1 hour.
The SRS-A used in these studies was obtained by challenging a large quantity of chopped lung fragments from actively sensitized guinea pigs with egg albumin in vitro. The animals were sensitized to egg albumin by an intraperitoneal injection of the antigen (1 ml of 10 mg/ml) in saline 28 to 45 days prior to challenge. The in vitro challenge was carried out by first preincubating the lung tissue (40 mg/ml) at 37° C. in Tyrodes solution for 5 minutes, adding the egg albumin ([…] final concentration) to the fragments and after a 10 minute challenge, separating the media containing the SRS-A from the lung tissue by filtration on Whatman #1 filter paper. The concentration of SRS-A in the filtrate was calibrated by comparison of the contraction amplitude elicited in the bioassay system by a given volume of the supernatant with contractions obtained by varying concentrations of histamine. One unit of SRS-A is equivalent to that quantity which will give the same contraction as 5 ng of histamine. After standarization, the SRS-A was stored in small aliquots at -80° C. for further use. […] SRS-A antagonism was determined by pretreating the ileum with drug for 30 seconds prior to the addition of a concentration of SRS-A which have a submaximal response, determination of the amplitude of contraction elicited in the presence of drug and then washing the ileum with Tyrodes. […]

[5] = tested on: leukotriene E (LTE) induced skin wheal formation in rat skin; experiment: LTE-induced skin wheal formation in rat; format: in vivo; conditions: for ED50: rat skin wheal, read-out: ID50 (the source's name)
Procedure: (a) Methodology for LTE-induced Skin Wheal Formation in Rat. The ability of a drug to inhibit leukotriene E (LTE) induced skin wheal formation in rat skin is measured. In this model system a dose of LTE which gives a maximal wheal response, is injected (in 0.05 ml of saline) intradermally into anesthetized rats which have been pretreated for 30 minutes with 50 mg/kg of pyrilamine maleate and 4 mg/kg of methyl […] maleate (both administered intraperitoneally). The animal is then immediately treated with test drug (at 10 mg/kg, i.v.) followed by an intravenous injection of Evans blue (0.5%) into the tail vein of the animal. Thirty minutes later the animals are sacrificed and the increase in capillary permeability induced by LTE is reflected by the migration of dye into the injection point in the skin (the response being quantitated by the size, in mm, of the dye spot in the skin). The average response in 5 animals (4 intradermal injections of LTE per animal) treated with the test compound is compared with the response elicited in a similar group of animals which were not treated with the drug. For oral studies, the test animals are pretreated two hours prior to intradermal injection of LTE.

[6] = tested on: leukotriene E induced bronchoconstriction; experiment: LTE-induced bronchoconstriction in guinea pigs, in vivo (i.v. / oral); set-up: species or system guinea pig (Hartley strain); conditions: for ED50: read-out: ID50 (the source's name)
[7] = tested on: histamine-induced constriction in guinea pig ilea; experiment: Antagonism of histamine-induced constriction in guinea pig ilea; conditions: 1×10^-7 M histamine
Procedure: (f) Antagonism of Histamine-induced Constriction in Guinea Pig Ilea
Antihistaminic activity was determined on a segment of guinea pig ileum that was suspended in a 37° C. bath of oxygenated Tyrodes solution. At 4 minute intervals, the ileum was challenged with 1×10^-7 M histamine for sufficient time to produce a peak contraction and then washed with fresh Tyrodes solution. After the tissue response to histamine had stabilized, the ileum was pretreated with the standard antihistaminic compound, pyrilamine maleate, for 1 minute prior to rechallenge with histamine, the contraction recorded, and the tissue washed with Tyrodes solution. […] By the IC50 for pyrilamine maleate in the test system was 1×10^-8 M. IC50 's for test drugs were determined by this same procedure.

[8] = LD50 in mice (acute toxicity); conditions: mouse, in vivo, po, orally
[9] = tested on: acetylcholine-induced constriction in guinea pig ilea; experiment: Antagonism of acetylcholine-induced constriction in guinea pig ilea; conditions: 5.0×10^-7 M acetylcholine; read-out: IC50 antagonism of acetylcholine-induced constrictions
Procedure: (e) Antagonism of Acetylcholine-induced Constriction in Guinea Pig Ilea
Anticholinergic activity was determined on a segment of guinea pig ileum that was suspended in a 37° C. bath of oxygenated Tyrodes solution. At 4 minute intervals, the ileum was challenged with 5.0×10^-7 M acetylcholine for sufficient time to produce a peak contraction and then washed with fresh Tyrodes solution. After the tissue response to acetylcholine had stablized, the ileum was pretreated with the standard anticholinergic, atropine sulfate, for 1 minute prior to rechallenge with acetylcholine, the contraction recorded and the tissue washed with Tyrodes solution. […] The IC50 for atropine was 1×10^-8 M. THe IC50 's for test drugs were determined by this same procedure.

Row | IC50 [1] [µM] | IC50 [2] [µM] | SMILES | also measured
1 | < 10 | < 10 | CC(C)c1ccc2nc3ccc(C(=O)NCCSc4ccncc4)cn3c(=O)c2c1 [Example 12, N-[2-(4-Pyridylthio)ethyl]-2-(1-methylethyl)-11-oxo-11H-pyrido[2,1-b]quinazoline-8-carboxamide] | 
2 | < 10 | < 10 | O=C(NCCCCc1cccnc1)c1ccc2nc3ccc(O)cc3c(=O)n2c1 [Example 22, 2-Hydroxy-N-[4-(3-pyridyl)butyl]-11-oxo-11H-pyrido[2,1-b]quinazoline-8-carboxamide] | 
3 | < 10 | > 10 | CC(C)c1ccc2nc3ccc(C(=O)OCCCc4cccnc4)cn3c(=O)c2c1 [Example 1, 2-(1-methylethyl)-11-oxo-11H-pyrido[2,1-b]quinazoline-8-carboxylic acid 3-(3-pyridyl)propyl ester] | 
4 | < 10 | < 10 | CC(C)Oc1ccc2nc3ccc(C(=O)NCCCCc4cccnc4)cn3c(=O)c2c1 [Example 19, 2-(1-Methylethoxy)-N-[4-(3-pyridyl)butyl]-11-oxo-11H-pyrido[2,1-b]quinazoline-8-carboxamide] | 
5 | > 10 | < 10 | CC(C)c1ccc2nc3ccc(C(=O)NCCCCCn4ccnc4)cn3c(=O)c2c1 [Example 16, N-[5-(1H-Imidazol-1-yl)pentyl]-2-(1-methylethyl)-11-oxo-11H-pyrido[2,1-b]quinazoline-8-carboxamide] | 

Second part, the compound before the results:

Row | SMILES | IC50 [1] [µM] | IC50 [2] [µM] | also measured
6 | CC(C)NCC(O)c1ccc(O)c(O)c1 (stereo not shown) [Isoproterenol] |  |  | Biological half-life [3]: 19.4 min
7 | CCCc1c(OCC(O)COc2ccc3c(=O)cc(C(=O)O)oc3c2CCC)ccc(C(C)=O)c1O (stereo not shown) [FPL 55712, 7-[3-(4-Acetyl-3-hydroxy-2-propylphenoxy)-2-hydroxypropoxy]-4-oxo-8-propyl-4H-1-benzopyran-2-carboxylic acid, reference compound] |  |  | IC50 [4]: 0.03 µM; inhibition at 10 mg/kg ([5]; Rattus norvegicus, iv, 10 mg/kg): 88%; oral activity, LTE-induced skin wheal ([5]; orally): inactive orally; Biological half-life [3]: 77 min; inhibition at 10 mg/kg ([6]; Cavia porcellus, iv, 10 mg/kg): 98%; oral activity, LTE-induced bronchoconstriction ([6]; orally): orally inactive
8 | COc1ccc(CN(CCN(C)C)c2ccccn2)cc1 [pyrilamine maleate, reference compound] |  |  | IC50 [7]: 0.01 µM
9 | CCCCC[C@H](O)/C=C/[C@H]1[C@H](O)CC(=O)[C@@H]1C/C=C\CCCC(=O)O [PGE2] |  |  | Biological half-life [3]: 2.1 min
10 | CC(C)c1ccc2nc3ccc(C(=O)NCCCCCc4ccncc4)cn3c(=O)c2c1 [Example 11, N-[5-(4-Pyridyl)pentyl]-2-(1-methylethyl)-11-oxo-11H-pyrido[2,1-b]quinazoline-8-carboxamide] | < 10 | < 10 | 
11 | Cc1ccc2nc3ccc(C(=O)NCCCCc4cccnc4)cn3c(=O)c2c1 [Example 17, 2-Methyl-N-[4-(3-pyridyl)butyl]-11-oxo-11H-pyrido[2,1-b]quinazoline-8-carboxamide] | > 10 | < 10 | 
12 | CC(C)c1ccc2nc3ccc(C(=O)NCCCCc4ccncc4)cn3c(=O)c2c1 [2-(1-methylethyl)-N-[4-(4-pyridyl)butyl]-11-oxo-11H-pyrido[2,1-b]quinazoline-8-carboxamide] | < 10 | > 10 | ED50 ([5]; iv): 10 mg/kg; ED50 ([5]; po): 90 mg/kg; LD50 [8]: > 1000 mg/kg; ED50 ([6]; Cavia porcellus, iv): 1.9 mg/kg; ED50 ([6]; Cavia porcellus, po, orally (2 hours pretreatment)): 57 mg/kg
13 | CN1[C@@H]2CC[C@H]1CC(OC(=O)C(CO)c1ccccc1)C2 (stereo partly shown) [atropine, atropine sulfate, reference compound] |  |  | IC50 [9]: 0.01 µM
